From US20240174690A1, “ANNULATED 2-AMINO-3-CYANO THIOPHENES AND DERIVATIVES FOR THE TREATMENT OF CANCER” (BOEHRINGER INGELHEIM INTERNATIONAL GMBH, priority 2021, published 2024)
pIC50: −log10 of the molar value.

Key:
GP2D cells = assay: GP2D proliferation assay (120 h) (colorectal cancer, G12D); type: cell-based
Method in brief: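 500 cells/well in DMEM + GlutaMAX + 10% FCS, exposed to a logarithmic compound dose series (DMSO-normalized) for 120 h. Viability read by CellTiter-Glo luminescence as percent of DMSO control, with an untreated T0 read at dosing; IC50 from four-parameter non-linear regression.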

KRAS (G13D)::SOS1 = KRAS (G13D)::SOS1 (Homo sapiens (Human), UniProt P01116, C118S/G13D); assay: KRAS::SOS1 AlphaScreen binding assay, KRAS G13D
Source text: This assay can be used to examine the potency with which compounds according to the invention binding to (mutated) KRAS inhibit the protein-protein interaction between SOS1 and (mutated) KRAS e.g., KRAS WT, KRAS G12C, KRAS G12D, KRAS G12V, KRAS G13D. […] Low IC50 values in this assay setting are indicative of strong inhibition of protein-protein interaction between SOS1 and KRAS:
These assays measure the inhibitory effect of compounds on KRAS mutant protein-protein interactions using the Alpha Screen technology by Perkin Elmer.
The following (mutant) enzyme forms of KRAS and interacting proteins are used in these assays at the given concentrations: • KRAS (G12D) 1-169, N-terminal 6His-tag, C-terminal avi-tag (Xtal BioStructures, Inc.); final assay concentration 10 nM and SOS1 564-1049, N-terminal 229 GST-tag, TEV cleavage site (Viva Biotech Ltd); final assay concentration 5 nM; • KRAS (G12C) 1-169, N-terminal 6His-tag for purification, cleaved off, C-terminal avi-tag, biotinylated, mutations: C51S, C80L, C118S (in house); final assay concentration 7.5 nM and SOS1 564-1049, N-terminal 229 GST-tag, TEV cleavage site (Viva Biotech Ltd); final assay concentration 5 nM; • KRAS (G12V) 1-169, N-terminal 6His-tag for purification, cleaved off, C-terminal avi-tag, biotinylated, TEV cleavage site, mutation: C118S, GDP loaded (in house); final assay concentration 10 nM and SOS1 564-1049, N-terminal 229 GST-tag, TEV cleavage site (Viva Biotech Ltd); final assay concentration 10 nM; • KRAS (G13D) 1-169, N-terminal 6His-tag for purification, cleaved off, C-terminal avi-tag, biotinylated, TEV cleavage site, mutation: C118S, GDP loaded (in house); final assay concentration 10 nM and SOS1 564-1049, N-terminal 229 GST-tag, TEV cleavage site (Viva Biotech Ltd); final assay concentration 10 nM; • KRAS (WT) 1-169, N-terminal 6His-tag for purification, cleaved off, C-terminal avi-tag, biotinylated, TEV cleavage site, mutation: C118S, GDP loaded (in house); final assay concentration 10 nM and SOS1 564-1049, N-terminal 229 GST-tag, TEV cleavage site (Viva Biotech Ltd); final assay concentration 10 nM.
Test compounds dissolved in DMSO are dispensed onto assay plates (Proxiplate 384 PLUS, white, PerkinElmer; 6008289) using an Access Labcyte Workstation with the Labcyte Echo 55×. For the chosen highest assay concentration of 100 μM, 150 nL of compound solution are transferred from a 10 mM DMSO compound stock solution. A series of eleven fivefold dilutions per compound are transferred to the assay plate, compound dilutions are tested in duplicates. DMSO are added as backfill to a total volume of 150 nL.
The assays run on a fully automated robotic system in a darkened room below 100 Lux. To 150 nl of compound dilution 10 μl of a mix including KRAS mutant protein, SOS1 (final assay concentrations see above) and GDP nucleotide (Sigma G7127; final assay concentration 10 μM) in assay buffer (1×PBS, 0.1% BSA, 0.05% Tween 20) are added into columns 1-24.
After 30 minutes incubation time 5 μl of Alpha Screen bead mix in assay buffer are added into columns 1-23. Bead mix consists of AlphaLISA Glutathione Acceptor Beads (PerkinElmer, Cat No AL109) and AlphaScreen Streptavidin Donor Beads (PerkinElmer Cat No 6760002) in assay buffer at a final assay concentration of 10 μg/ml each.
Plates are kept at room temperature in a darkened incubator. After an additional 60 minutes incubation time the signal is measured in a PerkinElmer Envision HTS Multilabel Reader using the AlphaScreen specs from PerkinElmer.
Each plate contains up to 16 wells of a negative control depending on the dilution procedure (platewise or serial) (DMSO instead of test compound; with KRAS mutant::SOS1 GDP mix and bead mix; column 23) and 16 wells of a positive control (DMSO instead of test compound; with KRAS mutant::SOS1 GDP mix w/o bead mix; column 24).
As internal control known inhibitors of KRAS mutant::SOS1 interaction can be measured on each compound plate. […]

KRAS (G12V)::SOS1 = KRAS (G12V)::SOS1 (Homo sapiens (Human), UniProt P01116, C118S/G12V); assay: KRAS::SOS1 AlphaScreen binding assay, KRAS G12V
Method in brief: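 AlphaScreen measurement of compound disruption of biotinylated, GDP-loaded KRAS 1-169 (10 nM; G12C 7.5 nM) binding to GST-SOS1 564-1049 (5 nM with G12D/G12C, 10 nM otherwise), with 10 μM GDP in PBS/0.1% BSA/0.05% Tween 20. Timing was 30 min compound preincubation, then 60 min with beads at room temperature; top concentration 100 μM, 4-parameter IC50.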

KRAS (G13D)::SOS1, sequence (P01116 other isoform, or with tags, fused parts or gaps G13D/C118S): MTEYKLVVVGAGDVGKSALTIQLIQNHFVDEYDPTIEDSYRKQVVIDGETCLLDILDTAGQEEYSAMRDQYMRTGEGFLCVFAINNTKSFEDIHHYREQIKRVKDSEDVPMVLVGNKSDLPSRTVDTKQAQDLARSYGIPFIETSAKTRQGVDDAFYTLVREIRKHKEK
KRAS (G12V)::SOS1, sequence (P01116 other isoform, or with tags, fused parts or gaps G12V/C118S): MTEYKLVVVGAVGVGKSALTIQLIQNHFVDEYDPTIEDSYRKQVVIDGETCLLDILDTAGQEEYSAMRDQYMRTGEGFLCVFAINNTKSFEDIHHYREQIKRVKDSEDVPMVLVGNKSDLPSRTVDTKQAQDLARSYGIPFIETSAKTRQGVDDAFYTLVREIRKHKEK

| Compound | pIC50 (GP2D cells) | pIC50 (KRAS (G13D)::SOS1) | pIC50 (KRAS (G12V)::SOS1) |
| --- | --- | --- | --- |
| C[C@H](Oc1cc(N2CCN(C)C3(COC3)C2)nc(-c2onc3c2CCC[C@@]32CCCc3sc(N)c(C#N)c32)n1)[C@@H]1C[C@@H](F)CN1C [I-37] | 7.62 | – | – |
| C[C@H](Oc1cc(N2CCNC3(COC3)C2)nc(-c2onc3c2CCC[C@@]32CCCc3sc(N)c(C#N)c32)n1)[C@@H]1CCCN1C [I-4] | 9.00 | 7.70 | 8.10 |
| C[C@H](Oc1cc(-c2ccn(C)n2)nc(-c2onc3c2CCC[C@@]32CCCc3sc(N)c(C#N)c32)n1)[C@@H]1CCCN1C [I-21] | 6.26 | – | – |
| Cc1ccc(-c2cc(O[C@@H](C)[C@@H]3CCCN3C)nc(-c3onc4c3CCC[C@@]43CCCc4sc(N)c(C#N)c43)n2)cn1 [I-28] | – | – | 8.52 |
| CO[C@H]1CCN(C)[C@@H]1[C@H](C)Oc1cc(N2CCNC3(CC3)C2)nc(-c2onc3c2CCC[C@@]32CCCc3sc(N)c(C#N)c32)n1 [I-49] | 9.00 | – | – |
| C[C@H](Oc1cc(N2CCNC3(CCC3)C2)nc(-c2onc3c2CCC[C@@]32CCCc3sc(N)c(C#N)c32)n1)[C@@H]1CCCN1C [I-3] | 8.70 | – | – |
| C[C@H](Oc1cc(-c2cnn(C)n2)nc(-c2noc3c2CCC[C@@]32CCCc3sc(N)c(C#N)c32)n1)[C@@H]1C[C@@H](F)CN1C [II-28] | – | – | 7.92 |
| C[C@H](Oc1cc(N2CC[C@H](N3CCCCC3)C2)nc(-c2noc3c2CCC[C@@]32CCCc3sc(N)c(C#N)c32)n1)[C@@H]1CCCN1C [II-12] | 8.05 | – | – |
| C[C@H](Oc1cc(-c2ccn(C[C@@H](C)O)n2)nc(-c2onc3c2CCC[C@@]32CCCc3sc(N)c(C#N)c32)n1)[C@@H]1CCCN1C [I-30] | 6.09 | – | – |
| C[C@H](Oc1cc([C@H]2CCN(C)C2)nc(-c2noc3c2CCC[C@@]32CCCc3sc(N)c(C#N)c32)n1)[C@@H]1CCCN1C [II-38] | 8.40 | – | – |
| C[C@H](Oc1cc(N2CCNC3(CC3)C2)nc(-c2onc3c2CCC[C@@]32CCCc3sc(N)c(C#N)c32)n1)[C@@H]1C[C@@H](F)CN1C [I-45] | 8.70 | – | 8.10 |
| C[C@H](Oc1cc(N2C[C@@H](N(C)C)[C@@H](O)C2)nc(-c2noc3c2CCC[C@@]32CCCc3sc(N)c(C#N)c32)n1)[C@@H]1CCCN1C [II-10] | 7.96 | – | – |
| C[C@H](Oc1cc(N2CCC(N(C)C)CC2)nc(-c2noc3c2CCC[C@@]32CCCc3sc(N)c(C#N)c32)n1)[C@@H]1CCCN1C [II-48] | 7.19 | – | – |
| C[C@H](Oc1cc(-n2ccc(C(=O)NC3COC3)n2)nc(-c2noc3c2CCC[C@@]32CCCc3sc(N)c(C#N)c32)n1)[C@@H]1CCCN1C [II-25] | – | 7.96 | 8.15 |
| C[C@H]1CN(C)CCCN1c1cc(N2CC[C@H](N(C)C)C2)nc(-c2noc3c2CCC[C@@]32CCCc3sc(N)c(C#N)c32)n1 [II-16] | 7.25 | – | – |
| CO[C@@H]1C[C@@H]([C@H](C)Oc2cc(-c3ccn(C)n3)nc(-c3onc4c3CCC[C@@]43CCCc4sc(N)c(C#N)c43)n2)N(C)C1 [I-23] | 5.93 | – | – |
| C[C@H](Oc1cc(N2CCN(C)C3(CC3)C2)nc(-c2onc3c2CCC[C@@]32CCCc3sc(N)c(C#N)c32)n1)[C@@H]1CCCN1C [I-41] | 8.10 | – | – |
| C[C@H](Oc1cc(-c2ccn([C@H]3CCCOC3)n2)nc(-c2noc3c2CCC[C@@]32CCCc3sc(N)c(C#N)c32)n1)[C@@H]1CCCN1C [II-42] | – | – | 8.70 |

| Compound | pIC50 (GP2D cells) | pIC50 (KRAS (G13D)::SOS1) | pIC50 (KRAS (G12V)::SOS1) |
| --- | --- | --- | --- |
| C[C@H](Oc1cc(N2CCNC3(COC3)C2)nc(-c2noc3c2CCC[C@@]32CCCc3sc(N)c(C#N)c32)n1)[C@@H]1CCCN1C [II-31] | 9.00 | 8.10 | – |
| C[C@H](Oc1cc(N2CCNC(C)(C)C2)nc(-c2noc3c2CCC[C@@]32CCCc3sc(N)c(C#N)c32)n1)[C@@H]1CCCN1C [II-32] | 8.30 | – | – |
| C[C@H](Oc1cc(N2CCN(C)C3(COC3)C2)nc(-c2noc3c2CCC[C@@]32CCCc3sc(N)c(C#N)c32)n1)[C@@H]1CCCN1C [II-13] | 8.05 | 8.10 | 8.52 |
| CN[C@H]1CCN(c2cc(O[C@@H](C)[C@@H]3CCCN3C)nc(-c3noc4c3CCC[C@@]43CCCc4sc(N)c(C#N)c43)n2)C1 [II-35] | 7.51 | – | – |
| C[C@@H]1CN(c2cc(O[C@@H](C)[C@@H]3C[C@@H](F)CN3C)nc(-c3noc4c3CCC[C@@]43CCCc4sc(N)c(C#N)c43)n2)CC2(CC2)N1 [II-17] | 8.22 | – | – |
| C[C@H](O)Cn1ccc(-c2cc(O[C@@H](C)[C@@H]3CCCN3C)nc(-c3onc4c3CCC[C@@]43CCCc4sc(N)c(C#N)c43)n2)n1 [I-31] | 6.23 | – | – |
| C[C@H](Oc1cc(-n2ccc(C(=O)NC3(C)COC3)n2)nc(-c2noc3c2CCC[C@@]32CCCc3sc(N)c(C#N)c32)n1)[C@@H]1CCCN1C [II-26] | – | 8.10 | 8.70 |
| C[C@H](Oc1cc(N2C[C@@H](N(C)C)[C@@H](F)C2)nc(-c2noc3c2CCC[C@@]32CCCc3sc(N)c(C#N)c32)n1)[C@@H]1CCCN1C [II-11] | 7.11 | – | – |
| C[C@H](Oc1cc(N2C[C@H](C)NC3(CC3)C2)nc(-c2noc3c2CCC[C@@]32CCCc3sc(N)c(C#N)c32)n1)[C@@H]1C[C@@H](F)CN1C [II-18] | 8.70 | – | – |
| C[C@H](Oc1cc(N2CC[C@@H](N(C)C)C2)nc(-c2noc3c2CCC[C@@]32CCCc3sc(N)c(C#N)c32)n1)[C@@H]1CCCN1C [II-47] | 6.98 | – | – |
| C[C@H](Oc1cc(N2CC[C@H](N3CCCC3)C2)nc(-c2noc3c2CCC[C@@]32CCCc3sc(N)c(C#N)c32)n1)[C@@H]1CCCN1C [II-14] | 8.22 | – | – |
| C[C@H](Oc1cc(-c2ccn(C3COC3)n2)nc(-c2onc3c2CCC[C@@]32CCCc3sc(N)c(C#N)c32)n1)[C@@H]1CCCN1C [I-34] | 6.06 | – | – |
| C[C@H](Oc1cc(N2C[C@H](C)N(C)[C@@H](C)C2)nc(-c2onc3c2CCC[C@@]32CCCc3sc(N)c(C#N)c32)n1)[C@@H]1CCCN1C [I-43] | 6.84 | – | 8.10 |
| C[C@H](Oc1cc(N2CCN(C)C3(CC3)C2)nc(-c2onc3c2CCC[C@@]32CCCc3sc(N)c(C#N)c32)n1)[C@@H]1C[C@@H](F)CN1C [I-39] | 7.77 | 6.84 | – |
| C[C@H](Oc1cc(N2CC3CCC(C2)N3)nc(-c2noc3c2CCC[C@@]32CCCc3sc(N)c(C#N)c32)n1)[C@@H]1CCCN1C [II-34] | 7.31 | 7.42 | 7.77 |
| CO[C@@H]1C[C@@H]([C@H](C)Oc2cc(N3CCN(C)C4(CC4)C3)nc(-c3onc4c3CCC[C@@]43CCCc4sc(N)c(C#N)c43)n2)N(C)C1 [I-50] | 8.00 | – | – |
| C[C@H](Oc1cc(N2CC[C@H](N(C)C)C2)nc(-c2noc3c2CCC[C@@]32CCCc3sc(N)c(C#N)c32)n1)[C@@H]1C[C@@H](F)CN1C [II-15] | 8.05 | 7.15 | 7.41 |
| C[C@H](Oc1cc(N2CCNC3(CCC3)C2)nc(-c2noc3c2CCC[C@@]32CCCc3sc(N)c(C#N)c32)n1)[C@@H]1CCCN1C [II-40] | 8.30 | – | – |
